Measured values: ChEMBL document CHEMBL1649576, “Emergence of extended-spectrum beta-lactamase PER-1 in Proteus vulgaris and Providencia stuartii isolates from Algiers, Algeria” (2009)
Values after ≈ are worked out from the molar mass of the structure shown.

Legend:
Assay type in all cases: functional
Proteus vulgaris [1] = assay: Antimicrobial activity against Proteus vulgaris Pv7 expressing beta-lactamase PER-1 by […]
Escherichia coli [2] = assay: Antimicrobial activity against rifampin-resistant Escherichia coli J53 transconjugated with Proteus vulgaris Pv7 expressing beta-lactamase PER-1 by Etest
Escherichia coli [3] = assay: Antimicrobial activity against rifampin-resistant Escherichia coli J53 transconjugated with Proteus vulgaris Pv9 expressing beta-lactamase PER-1 by Etest
Proteus vulgaris [4] = assay: Antimicrobial activity against Proteus vulgaris Pv5 expressing beta-lactamase PER-1 by […]
Providencia stuartii [5] = assay: Antimicrobial activity against Providencia stuartii Ps5 expressing beta-lactamase PER-1 by […]
Proteus vulgaris [6] = assay: Antimicrobial activity against Proteus vulgaris Pv5 expressing beta-lactamase PER-1 by Etest
Proteus vulgaris [7] = assay: Antimicrobial activity against Proteus vulgaris Pv9 expressing beta-lactamase PER-1 by […]
Proteus vulgaris [8] = assay: Antimicrobial activity against Proteus vulgaris Pv9 expressing beta-lactamase PER-1 by Etest
Escherichia coli [9] = assay: Antimicrobial activity against rifampin-resistant Escherichia coli J53 transconjugated with Providencia stuartii Ps5 expressing beta-lactamase PER-1 by […]
Escherichia coli [10] = assay: Antimicrobial activity against rifampin-resistant Escherichia coli J53 transconjugated with Providencia stuartii Ps5 expressing beta-lactamase PER-1 by Etest
Escherichia coli [11] = assay: Antimicrobial activity against rifampin-resistant Escherichia coli J53 transconjugated with Proteus vulgaris Pv7 expressing beta-lactamase PER-1 by […]
Proteus vulgaris [12] = assay: Antimicrobial activity against Proteus vulgaris Pv7 expressing beta-lactamase PER-1 by Etest
Escherichia coli [13] = assay: Antimicrobial activity against rifampin-resistant Escherichia coli J53 transconjugated with Proteus vulgaris Pv8 expressing beta-lactamase PER-1 by […]
Escherichia coli [14] = assay: Antimicrobial activity against rifampin-resistant Escherichia coli J53 transconjugated with Proteus vulgaris Pv5 expressing beta-lactamase PER-1 by […]
Providencia stuartii [15] = assay: Antimicrobial activity against Providencia stuartii Ps5 expressing beta-lactamase PER-1 by Etest
Escherichia coli [16] = assay: Antimicrobial activity against rifampin-resistant Escherichia coli J53 transconjugated with Proteus vulgaris Pv5 expressing beta-lactamase PER-1 by Etest
Proteus vulgaris [17] = assay: Antimicrobial activity against Proteus vulgaris Pv8 expressing beta-lactamase PER-1 by Etest
Proteus vulgaris [18] = assay: Antimicrobial activity against Proteus vulgaris Pv8 expressing beta-lactamase PER-1 by […]
Escherichia coli [19] = assay: Antimicrobial activity against rifampin-resistant Escherichia coli J53 transconjugated with Proteus vulgaris Pv8 expressing beta-lactamase PER-1 by Etest
Escherichia coli [20] = assay: Antimicrobial activity against rifampin-resistant Escherichia coli J53 transconjugated with Proteus vulgaris Pv9 expressing beta-lactamase PER-1 by […]

| Compound | MIC (Proteus vulgaris [1]) [µg/mL] | MIC (Escherichia coli [2]) [µg/mL] | MIC (Escherichia coli [3]) [µg/mL] | MIC (Proteus vulgaris [4]) [µg/mL] | MIC (Providencia stuartii [5]) [µg/mL] | MIC (Proteus vulgaris [6]) [µg/mL] | MIC (Proteus vulgaris [7]) [µg/mL] | MIC (Proteus vulgaris [8]) [µg/mL] | MIC (Escherichia coli [9]) [µg/mL] | MIC (Escherichia coli [10]) [µg/mL] | MIC (Escherichia coli [11]) [µg/mL] | MIC (Proteus vulgaris [12]) [µg/mL] | MIC (Escherichia coli [13]) [µg/mL] | MIC (Escherichia coli [14]) [µg/mL] | MIC (Providencia stuartii [15]) [µg/mL] | MIC (Escherichia coli [16]) [µg/mL] | MIC (Proteus vulgaris [17]) [µg/mL] | MIC (Proteus vulgaris [18]) [µg/mL] | MIC (Escherichia coli [19]) [µg/mL] | MIC (Escherichia coli [20]) [µg/mL] |
| --- | --- | --- | --- | --- | --- | --- | --- | --- | --- | --- | --- | --- | --- | --- | --- | --- | --- | --- | --- | --- |
| C[C@@H](O)[C@H]1C(=O)N2C(C(=O)O)=C(SCCNC=N)C[C@H]12 [IMIPENEM ANHYDROUS] | 1 (≈ 3.34 µM) | 0.125 (≈ 0.418 µM) | 0.25 (≈ 0.835 µM) | 1 (≈ 3.34 µM) | 2 (≈ 6.68 µM) | 1 (≈ 3.34 µM) | 1 (≈ 3.34 µM) | 1 (≈ 3.34 µM) | 0.125 (≈ 0.418 µM) | 0.125 (≈ 0.418 µM) | 0.125 (≈ 0.418 µM) | 1 (≈ 3.34 µM) | 0.125 (≈ 0.418 µM) | 0.25 (≈ 0.835 µM) | 2 (≈ 6.68 µM) | 0.25 (≈ 0.835 µM) | 1 (≈ 3.34 µM) | 1 (≈ 3.34 µM) | 0.125 (≈ 0.418 µM) | 0.25 (≈ 0.835 µM) |
| CCN1CCN(C(=O)N[C@@H](C(=O)N[C@@H]2C(=O)N3[C@@H]2SC(C)(C)[C@@H]3C(=O)O)c2ccccc2)C(=O)C1=O [PIPERACILLIN] | 32 (≈ 61.8 µM) | 32 (≈ 61.8 µM) | 32 (≈ 61.8 µM) | 16 (≈ 30.9 µM) | 32 (≈ 61.8 µM) | 16 (≈ 30.9 µM) | 32 (≈ 61.8 µM) | 32 (≈ 61.8 µM) | 32 (≈ 61.8 µM) | 32 (≈ 61.8 µM) | 32 (≈ 61.8 µM) | 32 (≈ 61.8 µM) | 16 (≈ 30.9 µM) | 16 (≈ 30.9 µM) | 32 (≈ 61.8 µM) | 16 (≈ 30.9 µM) | 16 (≈ 30.9 µM) | 16 (≈ 30.9 µM) | 16 (≈ 30.9 µM) | 32 (≈ 61.8 µM) |
| CO/N=C(\C(=O)N[C@@H]1C(=O)N2C(C(=O)[O-])=C(C[N+]3(C)CCCC3)CS[C@H]12)c1csc(N)n1 [CEFEPIME] | 16 (≈ 33.3 µM) |  | 8 (≈ 16.6 µM) | 32 (≈ 66.6 µM) | 8 (≈ 16.6 µM) | 32 (≈ 66.6 µM) | 8 (≈ 16.6 µM) | 8 (≈ 16.6 µM) |  |  |  | 16 (≈ 33.3 µM) | 8 (≈ 16.6 µM) | 16 (≈ 33.3 µM) | 8 (≈ 16.6 µM) | 16 (≈ 33.3 µM) | 32 (≈ 66.6 µM) | 32 (≈ 66.6 µM) | 8 (≈ 16.6 µM) | 8 (≈ 16.6 µM) |
| CC(C)(O/N=C(\C(=O)N[C@@H]1C(=O)N2C(C(=O)[O-])=C(C[n+]3ccccc3)CS[C@H]12)c1csc(N)n1)C(=O)O [CEFTAZIDIME] | > 256 | > 256 | > 256 | > 256 | > 256 | > 256 | > 256 | > 256 | > 256 | > 256 | > 256 | > 256 | > 256 | > 256 | > 256 | > 256 | > 256 | > 256 | > 256 | > 256 |
| CO/N=C(\C(=O)N[C@@H]1C(=O)N2C(C(=O)O)=C(COC(C)=O)CS[C@H]12)c1csc(N)n1 [CEFOTAXIME] | 32 (≈ 70.3 µM) | 31 (≈ 68.1 µM) | 32 (≈ 70.3 µM) | 32 (≈ 70.3 µM) | 32 (≈ 70.3 µM) | 32 (≈ 70.3 µM) | 32 (≈ 70.3 µM) | 32 (≈ 70.3 µM) | 32 (≈ 70.3 µM) | 32 (≈ 70.3 µM) | 32 (≈ 70.3 µM) | 32 (≈ 70.3 µM) | 16 (≈ 35.1 µM) | 32 (≈ 70.3 µM) | 32 (≈ 70.3 µM) | 32 (≈ 70.3 µM) | 32 (≈ 70.3 µM) | 32 (≈ 70.3 µM) | 16 (≈ 35.1 µM) | 32 (≈ 70.3 µM) |
